According to patent publication US11524966B1 (Valo Early Discovery, Inc., priority 2017, dated 2022):

Target: T1, USP25 (USP25-His6, Boston Biochem E-546) (Homo sapiens, UniProt Q9UHP3)
T1 construct: His6; purchased Boston Biochem E-546
T1 sequence (Q9UHP3 1-1055): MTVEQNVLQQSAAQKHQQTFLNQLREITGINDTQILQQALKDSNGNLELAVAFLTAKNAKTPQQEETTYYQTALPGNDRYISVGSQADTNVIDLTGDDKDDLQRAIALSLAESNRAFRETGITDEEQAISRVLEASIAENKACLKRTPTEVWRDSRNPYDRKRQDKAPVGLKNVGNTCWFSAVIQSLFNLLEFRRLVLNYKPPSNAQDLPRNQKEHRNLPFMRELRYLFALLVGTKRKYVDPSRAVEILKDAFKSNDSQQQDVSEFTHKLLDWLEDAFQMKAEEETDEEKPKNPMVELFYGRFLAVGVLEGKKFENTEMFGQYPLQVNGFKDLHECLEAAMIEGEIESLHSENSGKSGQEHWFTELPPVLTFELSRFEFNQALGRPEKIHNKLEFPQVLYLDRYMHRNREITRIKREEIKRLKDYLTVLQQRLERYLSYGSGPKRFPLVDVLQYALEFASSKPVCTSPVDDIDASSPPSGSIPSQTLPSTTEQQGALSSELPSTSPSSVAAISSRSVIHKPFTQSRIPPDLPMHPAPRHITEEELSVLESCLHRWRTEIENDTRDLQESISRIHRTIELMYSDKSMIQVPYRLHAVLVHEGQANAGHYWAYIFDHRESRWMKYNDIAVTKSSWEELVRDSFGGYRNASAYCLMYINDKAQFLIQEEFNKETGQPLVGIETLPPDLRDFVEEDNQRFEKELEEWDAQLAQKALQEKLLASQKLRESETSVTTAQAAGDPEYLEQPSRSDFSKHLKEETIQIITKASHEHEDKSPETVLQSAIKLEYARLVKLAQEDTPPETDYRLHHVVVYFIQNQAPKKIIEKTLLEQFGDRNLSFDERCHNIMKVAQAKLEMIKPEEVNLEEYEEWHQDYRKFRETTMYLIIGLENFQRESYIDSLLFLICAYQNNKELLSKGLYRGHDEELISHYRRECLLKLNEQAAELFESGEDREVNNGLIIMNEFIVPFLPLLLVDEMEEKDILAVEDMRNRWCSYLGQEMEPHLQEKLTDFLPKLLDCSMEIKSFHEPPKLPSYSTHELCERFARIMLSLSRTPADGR
Assay: Ubiquitin-Rhodamine 110 Assay for USP25 Activity, Example A-2
Assay type: biochemical
Conditions: Ub-Rh110 assay, Example A-2; read-out: USP25 A-2 IC50 range
In short: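 Inhibition is quantified as IC50 by 4-parameter fit of fluorescence (485/535 nm) from Ub-Rh110 hydrolysis. Enzyme USP25-His6 at 75 pM with 30 min compound preincubation, then 25 nM substrate for 45 min at room temperature in pH 8.0 Tris buffer containing BME.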

`Cc1ccc2c(N)c(C(=O)N[C@H]3COc4cc(N5CC6CC(C5)N6)ccc4C3)sc2n1` [Example 2-2, N-((3R)-7-(3,6-diazabicyclo[3.1.1]heptan-3-yl)chroman-3-yl)-3-amino-6-methylthieno[2,3-b]pyridine-2-carboxamide] and `Cc1nc2sc(C(=O)N[C@H]3COc4cc(N5CC6CC(C5)N6)ccc4C3)c(N)c2cc1F` [Example 2-15, N-((3R)-7-(3,6-diazabicyclo[3.1.1]heptan-3-yl)chroman-3-yl)-3-amino-5-fluoro-6-methylthieno[2,3-b]pyridine-2-carboxamide] fall in the same range of IC50: 50 to 200 nM for the first, 50 to 200 nM for the second.

First: Cc1nc2sc(C(=O)N[C@@H]3COc4cc(N5CCNCC5)ccc4C3)c(N)c2s1 [Example 1-26, (S)-6-amino-2-methyl-N-(7-(piperazin-1-yl)chroman-3-yl)thieno[2,3-d]thiazole-5-carboxamide]
Second: Cc1nc2sc(C(=O)N[C@H]3COc4cc(N5CCNCC5)ccc4C3)c(N)c2s1 [Example 1-25, (R)-6-amino-2-methyl-N-(7-(piperazin-1-yl)chroman-3-yl)thieno[2,3-d]thiazole-5-carboxamide]
The IC50 of the first is higher: greater than 2000 nM for the first, 200 to 2000 nM for the second. The second is the more potent here.

Compared with `Cc1nc2sc(C(=O)N[C@H]3COc4cc(N5CCNCC5)ccc4C3)c(N)c2cc1F` (single isomer, unassigned) [Example 1-15], `COc1nc2sc(C(=O)N[C@H]3COc4cc(N5CCNCC5)ccc4C3)c(N)c2cc1F` [Example 2-16, (R)-3-amino-5-fluoro-6-methoxy-N-(7-(piperazin-1-yl)chroman-3-yl)thieno[2,3-b]pyridine-2-carboxamide] is higher in IC50: 50 to 200 nM for the first, 200 to 2000 nM for the second.

Compared with `Cc1nc2sc(C(=O)N[C@H]3COc4cc(N5CC6CC(C5)N6)ccc4C3)c(N)c2s1` [Example 2-26, N-((3R)-7-(3,6-diazabicyclo[3.1.1]heptan-3-yl)chroman-3-yl)-6-amino-2-methylthieno[2,3-d]thiazole-5-carboxamide], `Cc1nc2sc(C(=O)N[C@@H]3COc4cc(N5CC6CCC(C5)N6)ccc4C3)c(N)c2s1` [Example 1-24, N-((3S)-7-(3,8-diazabicyclo[3.2.1]octan-3-yl)chroman-3-yl)-6-amino-2-methylthieno[2,3-d]thiazole-5-carboxamide] is higher in IC50: 200 to 2000 nM for the first, greater than 2000 nM for the second. The first is the more potent here.

First: Cc1cc(C(F)(F)F)c2c(N)c(C(=O)N[C@H]3COc4cc(N5CC6CNCC(C5)C6(F)F)ccc4C3)sc2n1 [Example 2-22, 3-amino-N-((3R)-7-(9,9-difluoro-3,7-diazabicyclo[3.3.1]nonan-3-yl)chroman-3-yl)-6-methyl-4-(trifluoromethyl)thieno[2,3-b]pyridine-2-carboxamide]
Second: Cc1cc(C)c2c(N)c(C(=O)N[C@H]3COc4cc(N5CC6CC(C5)N6)ccc4C3)sc2n1 [Example 2-18, N-((3R)-7-(3,6-diazabicyclo[3.1.1]heptan-3-yl)chroman-3-yl)-3-amino-4,6-dimethylthieno[2,3-b]pyridine-2-carboxamide]
The IC50 of the first is lower: 1 to 50 nM for the first, 50 to 200 nM for the second. The first is the more potent here.

`Cc1ccc2c(N)c(C(=O)N[C@H]3COc4cc(N5CCNCC5)ccc4C3)sc2n1` (single isomer, unassigned) [Example 1-1] and `Cc1cnc2c(N)c(C(=O)N[C@H]3COc4cc(N5CCNCC5)ccc4C3)sc2n1` (single isomer, unassigned) [Example 1-21] fall in the same range of IC50: 200 to 2000 nM for the first, 200 to 2000 nM for the second.

`Nc1c(C(=O)N[C@H]2COc3cc(N4CC5CCC(C4)N5)ccc3C2)sc2ncc(F)cc12` (single isomer, unassigned) [Example 1-17] and `Cc1cnc2c(N)c(C(=O)N[C@H]3COc4cc(N5CC6COCC(C5)N6)ccc4C3)sc2n1` [Example 2-12, N-((3R)-7-(3-oxa-7,9-diazabicyclo[3.3.1]nonan-7-yl)chroman-3-yl)-7-amino-3-methylthieno[2,3-b]pyrazine-6-carboxamide] fall in the same range of IC50: 200 to 2000 nM for the first, 200 to 2000 nM for the second.

First: CCn1ccc2cc(C(=O)N[C@H]3COc4cc(N5CC6CNCC(C5)C6(F)F)ccc4C3)cnc21 [Example 2-30, N-((3R)-7-(9,9-difluoro-3,7-diazabicyclo[3.3.1]nonan-3-yl)chroman-3-yl)-1-ethyl-1H-pyrrolo[2,3-b]pyridine-5-carboxamide]
Second: Cc1ccc2c(N)c(C(=O)N[C@H]3COc4cc(N5C6CCC5CNC6)ccc4C3)sc2n1 [Example 2-6, N-((3R)-7-(3,8-diazabicyclo[3.2.1]octan-8-yl)chroman-3-yl)-3-amino-6-methylthieno[2,3-b]pyridine-2-carboxamide]
The IC50 of the first is lower: 1 to 50 nM for the first, 50 to 200 nM for the second. The first is the more potent here.

`Cc1ccc2c(N)c(C(=O)N[C@H]3COc4cc(N5CCC[C@](N)(C(F)(F)F)C5)ccc4C3)sc2n1` (single isomer, unassigned) [Example 3-4] and `Cc1ccc2c(N)c(C(=O)N[C@@H]3COc4cc(N5CCN[C@H](C)[C@@H]5C)ccc4C3)sc2n1` (single isomer, unassigned) [Example 1-10] fall in the same range of IC50: 200 to 2000 nM for the first, 200 to 2000 nM for the second.

First: Cc1cnc2c(N)c(C(=O)N[C@H]3CCc4c(ccc(N5CCNCC5)c4C)C3)sc2n1 (single isomer, unassigned) [Example 2-36]
Second: Cc1ccc2c(N)c(C(=O)N[C@H]3COc4cc(N5CCN[C@@H](C)[C@@H]5C)ccc4C3)sc2n1 (single isomer, unassigned) [Example 1-13]
The IC50 of the first is higher: greater than 2000 nM for the first, 200 to 2000 nM for the second.
